ChEMBL document CHEMBL1150474, “Synthesis of new penem dithiocarbamates” (1993)

Experiments:
Format in all cases: functional
[1] = test system: Pseudomonas aeruginosa; experiment: Antibacterial activity against Pseudomonas aeruginosa ATCC 27853
[2] = test system: Pseudomonas aeruginosa; experiment: Antibacterial activity against Pseudomonas aeruginosa VR5
[3] = test system: Staphylococcus aureus; experiment: Antibacterial activity against Staphylococcus aureus MR 0.13
[4] = test system: Staphylococcus aureus; experiment: Antibacterial activity against Staphylococcus aureus ATCC 25923
[5] = test system: Escherichia coli; experiment: Antibacterial activity against Escherichia coli DC2, hyperpermeable strain
[6] = test system: Escherichia coli; experiment: Antibacterial activity against Escherichia coli ATCC 25922

| Structure (SMILES) | MIC [1] | MIC [2] | MIC [3] | MIC [4] | MIC [5] | MIC [6] |
| --- | --- | --- | --- | --- | --- | --- |
| C[C@@H](O)[C@H]1C(=O)N2C(C(=O)[O-])=C(CSC(=S)N(C)c3ccccc3)S[C@H]12.[Na+] | > 32 µg/mL | > 32 µg/mL | 0.25 µg/mL | 0.03 µg/mL | 1 µg/mL | > 32 µg/mL |
| C[C@@H](O)[C@H]1C(=O)N2C(C(=O)[O-])=C(CSC(=S)N(C)Cc3ccccc3)S[C@H]12.[Na+] | > 32 µg/mL | 32 µg/mL | 0.5 µg/mL | 0.06 µg/mL | 1 µg/mL | > 32 µg/mL |
| C[C@@H](O)[C@H]1C(=O)N2C(C(=O)[O-])=C(CSC(=S)N(C)C)S[C@H]12.[Na+] | > 32 µg/mL | 1 µg/mL | 0.06 µg/mL | 0.03 µg/mL | 0.12 µg/mL | 32 µg/mL |
| C[C@@H](O)[C@H]1C(=O)N2C(C(=O)[O-])=C(CSC(=S)N(C)CCc3ccccn3)S[C@H]12.[Na+] | > 32 µg/mL | > 32 µg/mL | 0.12 µg/mL | 0.06 µg/mL | 2 µg/mL | > 32 µg/mL |
| C[C@@H](O)[C@H]1C(=O)N2C(C(=O)[O-])=C(CSC(=S)N3CCOCC3)S[C@H]12.[Na+] | > 32 µg/mL | 0.5 µg/mL | 0.06 µg/mL | 0.03 µg/mL | 0.5 µg/mL | 32 µg/mL |
| CC1(C)S[C@@H]2[C@H](NC(=O)[C@H](N)c3ccccc3)C(=O)N2[C@H]1C(=O)O.CC1(C)[C@H](C(=O)O)N2C(=O)C[C@H]2S1(=O)=O | 32 µg/mL | 0.25 µg/mL | 0.12 µg/mL | 0.25 µg/mL | – | 8 µg/mL |
| C[C@@H](O)[C@H]1C(=O)N2C(C(=O)[O-])=C(CSC(=S)N3CCNCC3)S[C@H]12.[Na+] | > 32 µg/mL | 4 µg/mL | 0.25 µg/mL | 0.12 µg/mL | 4 µg/mL | 8 µg/mL |
| C[C@@H](O)[C@H]1C(=O)N2C(C(=O)[O-])=C(CSC(=S)N(C)CC(N)=O)S[C@H]12.[Na+] | > 32 µg/mL | 4 µg/mL | 0.03 µg/mL | 0.12 µg/mL | 0.5 µg/mL | 8 µg/mL |
| C[C@@H](O)[C@H]1C(=O)N2C(C(=O)[O-])=C(CSC(=S)N3CCCC3)S[C@H]12.[Na+] | > 32 µg/mL | > 32 µg/mL | 0.12 µg/mL | 0.03 µg/mL | 0.5 µg/mL | > 32 µg/mL |
| C[C@@H](O)[C@H]1C(=O)N2C(C(=O)[O-])=C(CSC(=S)N(C)c3ccccn3)S[C@H]12.[Na+] | > 32 µg/mL | > 32 µg/mL | 0.5 µg/mL | 0.06 µg/mL | 1 µg/mL | > 32 µg/mL |
| C[C@@H](O)[C@H]1C(=O)N2C(C(=O)[O-])=C(CSC(=S)N3CCN(C)CC3)S[C@H]12.[Na+] | > 32 µg/mL | 4 µg/mL | 0.06 µg/mL | 0.03 µg/mL | 0.5 µg/mL | 4 µg/mL |
| C[C@@H](O)[C@H]1C(=O)N2C(C(=O)[O-])=C(CSC(=S)N(C)OCc3ccccc3)S[C@H]12.[Na+] | > 32 µg/mL | 32 µg/mL | 0.12 µg/mL | 0.03 µg/mL | 2 µg/mL | > 32 µg/mL |
| C[C@@H]([O-])[C@H]1C(=O)N2C(C(=O)[O-])=C(CSC(=S)N3CC[N+](C)(C)CC3)S[C@H]12.[Na+] | > 32 µg/mL | 4 µg/mL | 0.03 µg/mL | 0.03 µg/mL | 2 µg/mL | 4 µg/mL |
| CC(=O)N1CCN(C(=S)SCC2=C(C(=O)[O-])N3C(=O)[C@H]([C@@H](C)O)[C@H]3S2)CC1.[Na+] | > 32 µg/mL | 16 µg/mL | 0.12 µg/mL | 0.12 µg/mL | 4 µg/mL | 16 µg/mL |
| CC(=O)OCCN(CCOC(C)=O)C(=S)SCC1=C(C(=O)[O-])N2C(=O)[C@H]([C@@H](C)O)[C@H]2S1.[Na+] | > 32 µg/mL | > 32 µg/mL | 0.5 µg/mL | 0.12 µg/mL | 2 µg/mL | > 32 µg/mL |
| C[C@@H](O)[C@H]1C(=O)N2C(C(=O)[O-])=C(CSC(=S)N3CCN(C(=O)c4ccc(O)c(O)c4)CC3)S[C@H]12.[Na+] | > 32 µg/mL | – | 1 µg/mL | 0.25 µg/mL | 0.5 µg/mL | > 32 µg/mL |
| C[C@@H](O)[C@H]1C(=O)N2C(C(=O)[O-])=C(CSC(=S)N(CCO)CCO)S[C@H]12.[Na+] | > 32 µg/mL | 2 µg/mL | 0.5 µg/mL | 0.25 µg/mL | 4 µg/mL | 32 µg/mL |
